Assay results reported in patent US8969554B2, “6-acyl-1,2,4-triazine-3,5-dione derivative and herbicides” (Kumiai Chemical Industry Co., Ltd., priority 2010, dated 2015).

Assays:
Assay type in all cases: in vivo
[1] = system: Echinochloa oryzicola; assay: Herbicidal activity by paddy field soil treatment (Test Example 1); design: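 index 0 to 10 in 10% steps of herbicidal effect with 10 meaning complete death and 0 below 10%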; conditions: 1000 g of effective component per hectare, evaluated on day 21 after the treatment, criteria of Table 72
Summary of the method: (§1)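 Flooded-paddy pre-emergence assay at 1000 g a.i./ha, applied to the water surface one day after sowing; visual herbicidal score at day 21 in greenhouse.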

[2] = system: Scirpus juncoides Rocxb.; assay: as above; design: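 index 0 to 10 in 10% steps of herbicidal effect with 10 meaning complete death and 0 below 10%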; conditions: applied on water surface, 1000 g of effective component per hectare, day 21 after the treatment
Summary of the method: as §1

[3] = system: Monochoria vaginalis; assay: as above; design: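 index 0 to 10 in 10% steps of herbicidal effect with 10 meaning complete death and 0 below 10%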; conditions: 1000 g of effective component per hectare, evaluated on day 21 after the treatment, criteria of Table 72
Summary of the method: as §1

[4] = system: Indian millet; assay: Herbicidal activity by field foliage treatment (Test example 3); design: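 index 0 to 10 in 10% steps of herbicidal effect with 10 meaning complete death and 0 below 10%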; conditions: 1000 g effective component per hectare, day 14 after the treatment
Summary of the method: (§2)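 Test plants, grown from seed for two weeks in a greenhouse, are treated by foliar application of a wettable-powder formulation in water at a rate of 1000 g effective component per hectare. Damage is assessed 14 days later.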

[5] = system: A. retroflexus; assay: as above; design: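 index 0 to 10 in 10% steps of herbicidal effect with 10 meaning complete death and 0 below 10%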; conditions: 1000 g effective component per hectare, day 14 after the treatment
Summary of the method: as §2

[6] = system: Setaria viridis; assay: as above; conditions: 1000 g effective component per hectare, day 14 after the treatment;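 note: index 0 to 10 in 10% steps of herbicidal effect with 10 meaning complete death and 0 below 10%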
Summary of the method: (§3)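 Potted field-soil plants grown 2 weeks in a greenhouse were sprayed over the whole foliage with diluted wettable powder at 1000 L/ha, delivering 1000 g active ingredient per hectare. Herbicidal effect scored by visual criteria 14 days after treatment.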

[7] = system: Echinochloa crus-galli; assay: as above; design: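 index 0 to 10 in 10% steps of herbicidal effect with 10 meaning complete death and 0 below 10%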; conditions: 1000 g effective component per hectare, day 14 after the treatment
Summary of the method: as §3

[8] = system: foxtail; assay: Herbicidal activity by field soil treatment (Test example 2); conditions: 1000 g effective component per hectare, day 21 after the treatment;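 note: index 0 to 10 in 10% steps of herbicidal effect with 10 meaning complete death and 0 below 10%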
Summary of the method: (§4)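 A wettable powder formulation, diluted with water, is applied to soil over just-sown seeds at an effective rate of 1000 g/ha. Effects are judged 21 days later after greenhouse growth.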

[9] = system: Indian millet; assay: as above; design: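 index 0 to 10 in 10% steps of herbicidal effect with 10 meaning complete death and 0 below 10%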; conditions: 1000 g effective component per hectare, day 21 after the treatment
Summary of the method: as §4

[10] = system: A. retroflexus; assay: as above; design: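 index 0 to 10 in 10% steps of herbicidal effect with 10 meaning complete death and 0 below 10%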; conditions: 1000 g effective component per hectare, day 21 after the treatment
Summary of the method: as §4

[11] = system: Echinochloa crus-galli; assay: as above; design: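 index 0 to 10 in 10% steps of herbicidal effect with 10 meaning complete death and 0 below 10%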; conditions: 1000 g effective component per hectare, day 21 after the treatment
Summary of the method: as §4

With `CCn1c(=O)c(C(=O)C2=C(O)CCCC2=O)nn(C)c1=O` [I-2] the “Herbicidal effects index number, Echinochloa oryzicola” value [1] was 10, the “herbicidal effect index, S. juncoides Rocxb.” value [2] was 10 and the “Herbicidal effects index number, Monochoria vaginalis” value [3] was 10. For the same compound, the “herbicidal effect index, Abutilon theophrasti” value [4] was 10, the “herbicidal effect index, Amaranthus retroflexus” value [5] was 10 and the “herbicidal effect index, Setaria viridis” value [6] was 10. For the same compound, the “herbicidal effect index, Echinochloa crus-galli” value [7] was 9, the “herbicidal effect index, Setaria viridis” value [8] was 7 and the “herbicidal effect index, Abutilon theophrasti” value [9] was 10. The “herbicidal effect index, Amaranthus retroflexus” value [10] was 10 and the “herbicidal effect index, Echinochloa crus-galli” value [11] was 10.

For `Cc1cccc(C)c1-n1c(=O)c(C(=O)C2=C(O)CCCC2=O)nn(C)c1=O` [I-92], the “Herbicidal effects index number, Echinochloa oryzicola” value [1] was 10, the “herbicidal effect index, S. juncoides Rocxb.” value [2] was 10 and the “Herbicidal effects index number, Monochoria vaginalis” value [3] was 10. The “herbicidal effect index, Abutilon theophrasti” value [4] was 10, the “herbicidal effect index, Amaranthus retroflexus” value [5] was 10 and the “herbicidal effect index, Setaria viridis” value [6] was 10. The “herbicidal effect index, Echinochloa crus-galli” value [7] was 10, the “herbicidal effect index, Setaria viridis” value [8] was 9 and the “herbicidal effect index, Abutilon theophrasti” value [9] was 10. For the same compound, the “herbicidal effect index, Amaranthus retroflexus” value [10] was 10 and the “herbicidal effect index, Echinochloa crus-galli” value [11] was 9.

With `Cn1nc(C(=O)C2=C(O)CCCC2=O)c(=O)n(C2CC2)c1=O` [I-16] the “Herbicidal effects index number, Echinochloa oryzicola” value [1] was 9, the “herbicidal effect index, S. juncoides Rocxb.” value [2] was 10 and the “Herbicidal effects index number, Monochoria vaginalis” value [3] was 9. For the same compound, the “herbicidal effect index, Abutilon theophrasti” value [4] was 9, the “herbicidal effect index, Amaranthus retroflexus” value [5] was 10 and the “herbicidal effect index, Setaria viridis” value [6] was 9. For the same compound, the “herbicidal effect index, Echinochloa crus-galli” value [7] was 9, the “herbicidal effect index, Setaria viridis” value [8] was 9 and the “herbicidal effect index, Abutilon theophrasti” value [9] was 9. For the same compound, the “herbicidal effect index, Amaranthus retroflexus” value [10] was 10 and the “herbicidal effect index, Echinochloa crus-galli” value [11] was 9.

`Cn1nc(C(=O)C2=C(O)CCCC2=O)c(=O)n(-c2ccc(Cl)c(Cl)c2)c1=O` [I-81] was tested, and the “Herbicidal effects index number, Echinochloa oryzicola” value [1] was 10, the “herbicidal effect index, S. juncoides Rocxb.” value [2] was 10 and the “Herbicidal effects index number, Monochoria vaginalis” value [3] was 10. For the same compound, the “herbicidal effect index, Abutilon theophrasti” value [4] was 10, the “herbicidal effect index, Amaranthus retroflexus” value [5] was 10 and the “herbicidal effect index, Setaria viridis” value [6] was 10. For the same compound, the “herbicidal effect index, Echinochloa crus-galli” value [7] was 10, the “herbicidal effect index, Setaria viridis” value [8] was 7 and the “herbicidal effect index, Abutilon theophrasti” value [9] was 10. For the same compound, the “herbicidal effect index, Amaranthus retroflexus” value [10] was 10 and the “herbicidal effect index, Echinochloa crus-galli” value [11] was 9.

For `Cc1ccccc1-n1c(=O)c(C(=O)C2=C(O)CCCC2=O)nn(C)c1=O` [I-57], the “Herbicidal effects index number, Echinochloa oryzicola” value [1] was 10, the “herbicidal effect index, S. juncoides Rocxb.” value [2] was 10 and the “Herbicidal effects index number, Monochoria vaginalis” value [3] was 10. The “herbicidal effect index, Abutilon theophrasti” value [4] was 10, the “herbicidal effect index, Amaranthus retroflexus” value [5] was 10 and the “herbicidal effect index, Setaria viridis” value [6] was 10. The “herbicidal effect index, Echinochloa crus-galli” value [7] was 10, the “herbicidal effect index, Setaria viridis” value [8] was 10 and the “herbicidal effect index, Abutilon theophrasti” value [9] was 10. For the same compound, the “herbicidal effect index, Amaranthus retroflexus” value [10] was 10 and the “herbicidal effect index, Echinochloa crus-galli” value [11] was 10.

For `Cc1cccc(-n2c(=O)c(C(=O)C3=C(O)CCCC3=O)nn(C)c2=O)c1C` [I-89], the “Herbicidal effects index number, Echinochloa oryzicola” value [1] was 10, the “herbicidal effect index, S. juncoides Rocxb.” value [2] was 10 and the “Herbicidal effects index number, Monochoria vaginalis” value [3] was 10. The “herbicidal effect index, Abutilon theophrasti” value [4] was 10, the “herbicidal effect index, Amaranthus retroflexus” value [5] was 10 and the “herbicidal effect index, Setaria viridis” value [6] was 10. For the same compound, the “herbicidal effect index, Echinochloa crus-galli” value [7] was 9, the “herbicidal effect index, Setaria viridis” value [8] was 8 and the “herbicidal effect index, Abutilon theophrasti” value [9] was 10. The “herbicidal effect index, Amaranthus retroflexus” value [10] was 10 and the “herbicidal effect index, Echinochloa crus-galli” value [11] was 9.

For `Cn1nc(C(=O)C2=C(O)CCCC2=O)c(=O)n(-c2ccc(Cl)cc2Cl)c1=O` [I-84], the “Herbicidal effects index number, Echinochloa oryzicola” value [1] was 10, the “herbicidal effect index, S. juncoides Rocxb.” value [2] was 10 and the “Herbicidal effects index number, Monochoria vaginalis” value [3] was 10. For the same compound, the “herbicidal effect index, Abutilon theophrasti” value [4] was 10, the “herbicidal effect index, Amaranthus retroflexus” value [5] was 10 and the “herbicidal effect index, Setaria viridis” value [6] was 10. For the same compound, the “herbicidal effect index, Echinochloa crus-galli” value [7] was 9, the “herbicidal effect index, Setaria viridis” value [8] was 9 and the “herbicidal effect index, Abutilon theophrasti” value [9] was 10. The “herbicidal effect index, Amaranthus retroflexus” value [10] was 10 and the “herbicidal effect index, Echinochloa crus-galli” value [11] was 9.

`Cn1nc(C(=O)C2=C(O)CCCC2=O)c(=O)n(-c2ccc(OC(F)(F)F)cc2)c1=O` [I-71] was tested, and the “Herbicidal effects index number, Echinochloa oryzicola” value [1] was 10, the “herbicidal effect index, S. juncoides Rocxb.” value [2] was 10 and the “Herbicidal effects index number, Monochoria vaginalis” value [3] was 10. The “herbicidal effect index, Abutilon theophrasti” value [4] was 9, the “herbicidal effect index, Amaranthus retroflexus” value [5] was 10 and the “herbicidal effect index, Setaria viridis” value [6] was 9. The “herbicidal effect index, Echinochloa crus-galli” value [7] was 10, the “herbicidal effect index, Setaria viridis” value [8] was 6 and the “herbicidal effect index, Abutilon theophrasti” value [9] was 10. For the same compound, the “herbicidal effect index, Amaranthus retroflexus” value [10] was 10 and the “herbicidal effect index, Echinochloa crus-galli” value [11] was 10.
